Columns and labels:
Format in all cases: cell-based
IL-6 (THP-1 cells) = test: IL-6 inhibition in THP-1 monocytes (HTRF); settings: Homo sapiens; for EC50: IL-6 inhibition, THP-1 cells, HTRF, 10-point dose-response starting from 10 μM; for inhibition at 10 µM: THP-1, read-out: percentage in parentheses printed under EC50 >10
Procedure: Compound Screening: THP-1 cells were cultured in basal media with 1% FBS for 24 hours before the start of the assay. […] THP-1 cells were plated at 5000 cells/well in the 384-well plates and incubated at 37° C. for 2 h. 500 ng/mL of […] was added after 2 hours and cells were incubated for another 22 hours at 37° C. Plates were spun in a centrifuge for 1 minute at 10,000 rpm and a mixture of anti-IL6 XL665, and anti-IL6 Cryptate diluted in reconstitution buffer (Cisbio Inc.) was added to each well. Following incubation for 3 hrs at room temperature, Homogeneous Time-Resolved Fluorescence (HTRF) was measured using the Envision (Perkin Elmer) at 665 nm and […]. The ratio of fluorescence at 665 nm to 620 nm was used as a readout for IL6 quantification. All samples were processed in duplicate. Readings were normalized to DMSO treated cells and normalized activities were utilized for EC50 calculations using the dose-response log (inhibitor) vs. response-variable slope (four parameters) nonlinear regression feature available in GraphPad Prism 5.0 (or Dotmatics).

[1] = tested on: Primary human fibroblasts derived from IPF patients (LL29 cells); test: Inhibition of the fibrotic process: αSMA staining in TGF-β1-treated LL29 fibroblasts; settings: Fibroblast; for EC50: 96 h, LL29 cells, TGF-β1 20 ng/mL, 4 days, % αSMA-positive cells; for inhibition at 10 µM: read-out: percent inhibition at 10 μM
From the text: Representative compounds were screened using primary human fibroblasts (derived from IFF patients) treated with TGF-β1 to determine their ability to inhibit the fibrotic process.
K. L., et.al., “RhoA signaling modulates cyclin D1 expression in human lung fibroblasts; implications for idiopathic pulmonary fibrosis”, Respiratory Research (2006), 7(1), 88] were obtained from American Type Culture Collection (ATCC) and expanded in F12 medium supplemented with 15% Fetal Bovine Serum and Penicillin/Streptomycin.
LL29 cells are plated at 1,500 cells/well in 80 μL/well F12 medium supplemented with 1% Fetal Bovine Serum. […] Wells treated with TGF-β1 and containing DMSO were used as controls. […] Following incubation for 4 days, SYTOX green nucleic acid stain (Life Technologies [Thermo Fisher Scientific]) was added to the wells at a final concentration of 1 μM and incubated at room temperature for 30 min.

[2] = tested on: Wnt activity (Sp5-Luc reporter, SW480 colon carcinoma cells); test: Screening assay for Wnt activity: Sp5-Luc reporter gene assay in SW480 cells; settings: Homo sapiens; for EC50: SW480 Sp5-Luc reporter, overnight incubation; for inhibition at 10 µM: SW480, read-out: percent inhibition at 10 μM
From the text: The screening assay for Wnt activity is described as follows. Reporter cell lines can be generated by stably transducing cancer cell lines (e.g., colon cancer) or primary cells (e.g., IEC-6 intestinal cells) with a lentiviral construct that includes a Wnt-responsive promoter driving expression of the firefly luciferase gene.
SW480 colon carcinoma cells were transduced with a lentiviral vector expressing luciferase with a human Sp5 promoter consisting of a sequence of eight TCF/LEF binding sites. SW480 cells stably expressing the Sp5-Luc reporter gene and a hygromycin resistance gene were selected by treatment with 150 μg/mL of hygromycin for 7 days. These stably transduced SW480 cells were expanded in cell culture and used for all further screening activities. […] For Sp5-Luc reporter gene assays, the cells were plated at 4,000 cells/well in 384-well plates with medium containing 1% fetal bovine serum and incubated overnight at 37° C. and 5% CO2. Following incubation, 20 μl of BrightGlo luminescence reagent (Promega) was added to each well of the 384-well assay plates. The plates were placed on an orbital shaker for 2 min and then luminescence was quantified using the Envision (Perkin Elmer) plate reader. Readings were normalized to DMSO only treated cells, and normalized activities were utilized for EC50 calculations using the dose-response log (inhibitor) vs. response-variable slope (four parameters) nonlinear regression feature available in GraphPad Prism 5.0 (or Dotmatics).

SW480 colon cancer cells = test: Cell viability assay (CellTiter-Blue) in SW480 colon cancer cells; settings: Homo sapiens; for EC50: 96 h, SW480 cell viability, four days incubation; for inhibition at 10 µM: SW480, read-out: percent inhibition at 10 μM
Procedure: Representative compounds were screened using the following assay procedure to assess the effect on cell viability as described below.
Approximately 2×10^3 SW480 colon cancer cells were seeded into each well and allowed to incubate in the presence or absence of compound for four days at 37° C./5% CO2. Eight replicates of DMSO-treated cells served as controls and cells treated with compound were performed in duplicate.
After incubation, 20 μL of CellTiter-Blue (Promega) was added to each well allowed to incubate for approximately 3 hours. This reagent was a buffered solution which contains resazurin, metabolically active cells were able to reduce rezarurin (blue) into resorufin (pink) which was highly fluorescent. This measured fluorescence was used as a readout for cell viability.

| Structure (SMILES) | EC50 (IL-6 (THP-1 cells)) [nM] | EC50 [2] [nM] | EC50 (SW480 colon cancer cells) [nM] | EC50 [1] [nM] | inhibition at 10 µM [1] [%] | inhibition at 10 µM (SW480 colon cancer cells) [%] | inhibition at 10 µM (IL-6 (THP-1 cells)) [%] | inhibition at 10 µM [2] [%] |
| --- | --- | --- | --- | --- | --- | --- | --- | --- |
| CS(=O)(=O)NCc1cc(F)cc(-c2cncc3[nH]c(-c4n[nH]c5ccc(-c6cncnc6)cc45)cc23)c1 [Compound 503, N-(3-Fluoro-5-(2-(5-(pyrimidin-5-yl)-1H-indazol-3-yl)-1H-pyrrolo[2,3-c]pyridin-4-yl)benzyl)methanesulfonamide] | 42 | 2540 | > 10000 | > 10000 | 17.1 | 20.3 | – | – |
| CCCC(=O)Nc1cncc(-c2ccc3[nH]nc(-c4cc5c(-c6cccc(F)c6)cncc5[nH]4)c3c2)c1 [Compound 17, N-(5-(3-(4-(3-Fluorophenyl)-1H-pyrrolo[2,3-c]pyridin-2-yl)-1H-indazol-5-yl)pyridin-3-yl)butyramide] | 87 | 200 | 282 | 254 | – | – | – | – |
| O=C(Nc1cncc(-c2ccc3[nH]nc(-c4cc5c(-c6cccc(F)c6)cncc5[nH]4)c3c2)c1)C1CCCCC1 [Compound 23, N-(5-(3-(4-(3-Fluorophenyl)-1H-pyrrolo[2,3-c]pyridin-2-yl)-1H-indazol-5-yl)pyridin-3-yl)cyclohexanecarboxamide] | 108 | 620 | 513 | 193 | – | – | – | – |
| CC(C)Nc1cncc(-c2ccc3[nH]nc(-c4cc5c(-c6cc(F)cc(CNS(C)(=O)=O)c6)cncc5[nH]4)c3c2)c1 [Compound 488, N-(3-Fluoro-5-(2-(5-(5-(isopropylamino)pyridin-3-yl)-1H-indazol-3-yl)-1H-pyrrolo[2,3-c]pyridin-4-yl)benzyl)methanesulfonamide] | 130 | 759 | 1650 | 2220 | – | – | – | – |
| CC(C)C(=O)Nc1cncc(-c2ccc3[nH]nc(-c4cc5c(-c6ccccc6F)cncc5[nH]4)c3c2)c1 [Compound 65, N-(5-(3-(4-(2-Fluorophenyl)-1H-pyrrolo[2,3-c]pyridin-2-yl)-1H-indazol-5-yl)pyridin-3-yl)isobutyramide] | 263 | 626 | 812 | 1250 | – | – | – | – |
| CN(C)CCOc1cncc(-c2ccc3[nH]nc(-c4cc5c(-c6ccc(F)cc6)cncc5[nH]4)c3c2)c1 [Compound 531, 2-((5-(3-(4-(4-Fluorophenyl)-1H-pyrrolo[2,3-c]pyridin-2-yl)-1H-indazol-5-yl)pyridin-3-yl)oxy)-N,N-dimethylethan-1-amine] | 2760 | 2010 | 976 | 607 | – | – | – | – |
| c1ncc(-c2ccc3[nH]nc(-c4cc5c(N6CCCCC6)cncc5[nH]4)c3c2)cc1OC1CCCCC1 [Compound 607, 5-(5-(Cyclohexyloxy)pyridin-3-yl)-3-(4-(piperidin-1-yl)-1H-pyrrolo[2,3-c]pyridin-2-yl)-1H-indazole] | 4450 | 1120 | 1980 | 647 | – | – | – | – |
| NC1CN(c2cncc(-c3ccc4[nH]nc(-c5cc6c(N7CCCCC7)cncc6[nH]5)c4c3)n2)C1 [Compound 606, 1-(6-(3-(4-(Piperidin-1-yl)-1H-pyrrolo[2,3-c]pyridin-2-yl)-1H-indazol-5-yl)pyrazin-2-yl)azetidin-3-amine] | 306 | 738 | 2810 | 486 | – | – | – | – |
| CCCCC(=O)Nc1cncc(-c2ccc3[nH]nc(-c4cc5c(-c6cc(F)cc(CNS(C)(=O)=O)c6)cncc5[nH]4)c3c2)c1 [Compound 495, N-(5-(3-(4-(3-Fluoro-5-(methylsulfonamidomethyl)phenyl)-1H-pyrrolo[2,3-c]pyridin-2-yl)-1H-indazol-5-yl)pyridin-3-yl)pentanamide] | 397 | 1730 | 3440 | > 10000 | 3.3 | – | – | – |
| Fc1ccc(-c2cncc3[nH]c(-c4n[nH]c5ccc(C6=CCNCC6)cc45)cc23)cc1 [Compound 522, 3-(4-(4-Fluorophenyl)-1H-pyrrolo[2,3-c]pyridin-2-yl)-5-(1,2,3,6-tetrahydropyridin-4-yl)-1H-indazole] | > 10000 | 3980 | 1670 | 2690 | – | – | 22 | – |
| c1cc(-c2ccc3[nH]nc(-c4cc5c(-c6ccncc6)cncc5[nH]4)c3c2)ccn1 [Compound 130, 5-(Pyridin-4-yl)-3-(4-(pyridin-4-yl)-1H-pyrrolo[2,3-c]pyridin-2-yl)-1H-indazole] | > 10000 | > 10000 | > 10000 | 1230 | – | 16.6 | 20.5 | 24.7 |

Continued, in another order:

| EC50 (IL-6 (THP-1 cells)) [nM] | EC50 [2] [nM] | EC50 (SW480 colon cancer cells) [nM] | Structure (SMILES) | EC50 [1] [nM] | inhibition at 10 µM [1] [%] | inhibition at 10 µM (SW480 colon cancer cells) [%] | inhibition at 10 µM (IL-6 (THP-1 cells)) [%] | inhibition at 10 µM [2] [%] |
| --- | --- | --- | --- | --- | --- | --- | --- | --- |
| 177 | 1290 | 1060 | c1ccc(-c2ccc3[nH]nc(-c4cc5c(-c6ccncc6)cncc5[nH]4)c3c2)nc1 [Compound 140, 5-(Pyridin-2-yl)-3-(4-(pyridin-4-yl)-1H-pyrrolo[2,3-c]pyridin-2-yl)-1H-indazole] | 750 | – | – | – | – |
| 1090 | 1330 | 1360 | c1cc(-c2ccc3[nH]nc(-c4cc5c(-c6ccsc6)cncc5[nH]4)c3c2)ccn1 [Compound 298, 5-(Pyridin-4-yl)-3-(4-(thiophen-3-yl)-1H-pyrrolo[2,3-c]pyridin-2-yl)-1H-indazole] | 716 | – | – | – | – |
| > 10000 | > 10000 | > 10000 | O=C(Cc1ccccc1)Nc1cncc(-c2ccc3[nH]nc(-c4cc5c(-c6ccncc6)cncc5[nH]4)c3c2)c1 [Compound 122] | 1470 | – | 8.6 | 47.8 | 21 |
| 171 | 240 | 302 | O=C(Nc1cncc(-c2ccc3[nH]nc(-c4cc5c(-c6ccc(F)cc6)cncc5[nH]4)c3c2)c1)C1CCC1 [Compound 49, N-(5-(3-(4-(4-Fluorophenyl)-1H-pyrrolo[2,3-c]pyridin-2-yl)-1H-indazol-5-yl)pyridin-3-yl)cyclobutanecarboxamide] | 135 | – | – | – | – |
| 6910 | 680 | 702 | CC(C)(C)C(=O)Nc1cncc(-c2ccc3[nH]nc(-c4cc5c(-c6ccc(F)cc6)cncc5[nH]4)c3c2)c1 [Compound 36, N-(5-(3-(4-(4-Fluorophenyl)-1H-pyrrolo[2,3-c]pyridin-2-yl)-1H-indazol-5-yl)pyridin-3-yl)pivalamide] | 1090 | – | – | – | – |
| 6480 | > 10000 | 2160 | Fc1ccccc1-c1cncc2[nH]c(-c3n[nH]c4ccc(-c5ccccn5)cc34)cc12 [Compound 84, 3-(4-(2-Fluorophenyl)-1H-pyrrolo[2,3-c]pyridin-2-yl)-5-(pyridin-2-yl)-1H-indazole] | 1910 | – | – | – | 45.9 |
| 436 | 1830 | 1350 | Fc1ccccc1-c1cncc2[nH]c(-c3n[nH]c4ccc(-c5cncc(OC6CCNCC6)c5)cc34)cc12 [Compound 544, 3-(4-(2-Fluorophenyl)-1H-pyrrolo[2,3-c]pyridin-2-yl)-5-(5-(piperidin-4-yloxy)pyridin-3-yl)-1H-indazole] | 2760 | – | – | – | – |

From patent US20180228780A1, “3-(1H-PYRROLO[2,3-C]PYRIDIN-2-YL)-1H-INDAZOLES AND THERAPEUTIC USES THEREOF” (Samumed, LLC, priority 2015, published 2018)
